According to US20240299277A1, “COMPOSITION FOR IMPROVING SKIN” (LG HOUSEHOLD & HEALTH CARE LTD., priority 2020, published 2024):

Tests used:
[1] = Free radical scavenging ability by DPPH method; format: biochemical; details: each component 0.5 mg/mL in methanol; DPPH 0.12 mM; 1 hour; absorbance 517 nm; average of three
Description: In Comparative Examples 1 to 4 and Examples 1 to 6, a solution was prepared using methanol as a solvent so that the concentration of each component in the solution was 0.5 mg/mL. In order to confirm the antioxidant effect of Comparative Examples 1 to 4 and Examples 1 to 6, free radical scavenging ability was measured using a 1,1-diphenyl-2-picrylhydrazyl (DPPH) method. […] DPPH was used after being dissolved in methanol at a concentration of 0.12 mM.
Comparative Examples 1 to 4, Examples 1 to 6, and Trolox solutions by concentration (0.0125, 0.025, 0.05, 0.1, 0.2, 0.4, 0.8 mg/mL) were each put into a 24-well plate in an amount of 100 μL, and the DPPH solution was added in an amount of 1,900 μL. After blocking the light at room temperature and leaving it for 1 hour, the absorbance at 517 nm was measured using a microplate reader (BioTek EPOCH). A calibration curve according to the concentration was created using the absorbance values of the Trolox solution at 7 concentrations. In this experiment, Trolox is one indicator for measuring the antioxidative capacity of a sample, and the antioxidative capacity of each comparative example and example is a size compared to Trolox. The degree of antioxidant effect shown by 1 mL of the example solution by substituting the absorbance of the example solution into the calibration curve is expressed in Trolox μmol equivalents/mL and summarized in Table 2 below. The experiment was performed three times, and then an average value was calculated and shown.

MNT-1 melanoma cells = experiment: Inhibition of melanin production in MNT-1 melanoma cells; format: cell-based; details: each component 3 μg/mL (3 ppm); 72 hours; relative to methanol negative control; average of three
Description: To culture MNT-1 melanoma cells, a mixture of Dulbecco's Modified Eagle's Medium (DMEM) and 10% fetal bovine serum (FBS) was used as a basal medium. MNT-1 melanoma cells were dispensed in a 6-well plate at a concentration of 1-2×10^5 cells/mL and cultured for 24 hours. Samples were treated so that the final concentration of each component of Comparative Examples 1 to 4 and Examples 1 to 6 was 3 μg/mL (3 ppm), and then cultured for 72 hours. As a positive control, arbutin was treated to be 200 μg/mL (200 ppm) (positive control in Table 3). Thereafter, the cells were treated with trypsin, detached from the culture vessel, centrifuged at 13,000 rpm for 1 minute, and then the supernatant was removed. Cells were lysed by adding 300 μL of a 0.5% Triton X-100 solution to the remaining cells. This was again centrifuged at 13,000 rpm for 3 minutes to recover the pellet and supernatant separately. Melanin in the pellet was dissolved by adding 100 μL of a 0.5 N sodium hydroxide solution and incubating for 12 hours, and absorbance at 450 nm was measured using a spectrophotometer to measure the total amount of melanin produced.
The total amount of inhibited melanin production was calculated as a melanin production inhibition rate (%) relative to a group (negative control group) treated with methanol (Equation 1 below), and the experiment was performed three times, and then an average value was calculated and shown in Table 3.

[2] = tested on: human-derived fibroblasts; experiment: Collagen synthesis promotion in fibroblasts (Procollagen 1α1 ELISA); format: cell-based; details: each component 3 μg/mL (3 ppm); 24 hours; medium without FBS; relative to methanol negative control; average of three
Description: A mixture of DMEM and 10% FBS was used as a basal medium for culturing human-derived fibroblasts. Skin fibroblasts were dispensed in a 48-well plate at a concentration of 2-5×10^4 cells/mL and cultured for 24 hours. The basal medium with growth factors was removed, and a medium (a medium to which FBS was not added) having a final concentration of 3 μg/mL (3 ppm) of each component of Comparative Examples 1 to 4 and Examples 1 to 6 was added and cultured for 24 hours. A positive control for inducing collagen synthesis was treated with TGF-β to be 5 ng/mL (5 ppb) (positive control in Table 4). A cell culture solution was taken and synthesized collagen was measured using a Human Procollagen 1α1 Duoset ELISA Kit (R&D Systems) and a spectrophotometer.
A calibration curve was created by measuring the separated and purified collagen at concentrations of 0.25, 0.5, 1, 2, 4, and 8 ng/mL, and based on this, the collagen (Type I collagen) production amounts of Comparative Examples 1 to 4 and Examples 1 to 6, a negative control group, and a positive control group were calculated. The collagen production amount was calculated using a collagen production rate (%) relative to the group treated with methanol (negative control group) (Equation 2 below), and the experiment was performed three times, and then an average value was calculated and shown in Table 4.

Human skin keratinocytes = experiment: Hyaluronic acid synthesis promotion in keratinocytes (Hyaluronan ELISA); format: cell-based; details: each component 3 μg/mL (3 ppm); 24 hours; medium without EGF and BPE; relative to methanol negative control; average of three
Description: Human skin keratinocytes (primary cultured human skin keratinocytes) were purchased from Thermo Fisher Scientific and cultured using Keratinocyte-SFM supplemented with epidermal growth factor (EGF), which is a growth factor, and bovine pituitary extract (BPE). The keratinocytes were dispensed in a 60-mm culture plate at a concentration of 2-5×10^5 cells/mL and cultured for 24 hours. The basal medium with growth factors was removed, and a medium (a medium to which EGF and BPE were not added) having a final concentration of 3 μg/mL (3 ppm) of each component of Comparative Examples 1 to 4 and Examples 1 to 6 was added and cultured for 24 hours. A positive control for inducing hyaluronic acid synthesis was treated with all-trans-retinoic acid to be 100 nM (positive control in Table 5). A cell culture solution was taken and synthesized hyaluronic acid was measured using a Hyaluronan DuoSet ELISA Kit (R&D Systems) and a spectrophotometer.
A calibration curve was created by measuring standard hyaluronic acid at concentrations of 1.1, 3.3, 10, 30, and 90 ng/mL, and based on this, the hyaluronic acid production amounts of Comparative Examples 1 to 4 and Examples 1 to 6, a negative control group, and […] were calculated. The hyaluronic acid production amount was calculated using a hyaluronic acid production rate (%) relative to the group treated with methanol (negative control group) (Equation 2 below), and the experiment was performed three times, and then an average value was calculated and shown in Table 5.

| SMILES | Trolox μmol equivalents/mL [1] | Melanin production Inhibition rate (%) (MNT-1 melanoma cells) | Collagen Production rate (%) [2] [%] | Hyaluronic acid Production rate (%) (Human skin keratinocytes) |
| --- | --- | --- | --- | --- |
| CCCCC/C=C\C/C=C\CCCCCCCC(=O)O [compound 4, Linoleic acid] | 0.023 Trolox μmol equivalents/mL | 6.7 | −2.5 | 4.1 |
| C[C@@H]1CC[C@H]2C(C)(C)[C@H]3C[C@@]12CC[C@@]3(C)O [compound 1, Cedrol] | 0.104 Trolox μmol equivalents/mL | 17.5 | 27.9 | 5.6 |
| COc1cc(/C=C/C(=O)O)ccc1O [compound 2, Ferulic acid] | 0.981 Trolox μmol equivalents/mL | 16.3 | 8.8 | 32.2 |
| CC[C@H](CC[C@@H](C)[C@H]1CC[C@H]2[C@@H]3CC=C4C[C@@H](O)CC[C@]4(C)[C@H]3CC[C@]12C)C(C)C [compound 3, Beta-sitosterol] | 0.051 Trolox μmol equivalents/mL | 1.7 | 2.4 | −3.0 |
